According to paper PMC7006651, “Effect of 6-Benzoyl-benzothiazol-2-one scaffold on the pharmacological profile of α-alkoxyphenylpropionic acid derived PPAR agonists” (Journal of Enzyme Inhibition and Medicinal Chemistry, 2020):
Like-named read-outs stand apart in the source and are kept apart here.

Assays:
[1] = biological target: T1, human PPARα (Homo sapiens, UniProt Q07869); test: Gene reporter (transactivation) assay, Cos-7 cells transfected with pGal4-hPPARα; type: cell-based; conditions: for hPPAR gene reporter αGal4 (%) / Emax: Emax relative to maximum activation with WY14643 (10 µM) = 100%; for hPPAR gene reporter αGal4 (%) / EC50: 24 h; for Emax: COS-7, 24 h, read-out: hPPAR gene reporter αGal4 (%); for EC50: GAL4 chimeric hPPARα, read-out: hPPAR gene reporter αEC50;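 as to all read-outs here: luciferase signal from a Gal4-driven reporter normalised to cotransfected β-galactosidase activity, cells exposed to rising compound concentrations with DMSO vehicle as control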
T1 construct: expressed in transfected cells; host or cells: Cos-7
T1 sequence (Q07869 239-466 limits assumed): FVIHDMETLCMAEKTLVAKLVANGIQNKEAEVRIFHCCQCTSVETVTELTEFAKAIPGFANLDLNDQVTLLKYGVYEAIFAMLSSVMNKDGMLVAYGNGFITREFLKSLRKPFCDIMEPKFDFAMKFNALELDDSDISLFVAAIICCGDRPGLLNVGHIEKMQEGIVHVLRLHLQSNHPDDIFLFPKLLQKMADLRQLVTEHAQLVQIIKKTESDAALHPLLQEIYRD
Procedure: (§1) Cos-7 cells were transiently transfected with luciferase reporter plasmid (pG5-TK-pGL3) in the presence of pGal4-hPPARα or pGal4-hPPARγ (these vectors express chimeric proteins containing the Gal4 DNA-binding domain fused to the human PPARα or PPARγ ligand binding domain coding sequence) expression vector. […] Cells were transfected in OptiMEM without FCS for 3 h at 37°, using polyethylenimine (PEI), with reporter and expression plasmids, as stated in figure’s legend. The plasmid pBluescript (Stratagene, La Jolla, CA) was used as carrier DNA to set the final amount of DNA to 5.5 µg/dish. The pCMV- ß-galactosidase expression plasmid was cotransfected as a control for transfection efficiency. […] After 16 h, cells were trypsinised and seeded in 96-well plates at the density of 2 × 10^4 cells/well and incubated for 6 h in 10% FCS containing DMEM. Cells were then incubated for 24 h in DMEM containing 0.2% FCS and increasing concentrations of the compound tested or vehicle (DMSO). At the end of the experiment, cells were washed once with ice-cold PBS and the luciferase and the β–galactosidase assays were performed as described previously[20]. Cells were incubated 24 h in the presence of indicated concentrations of compound. Luciferase activity was measured and normalised to internal control β-galactosidase activity. […] EC50 were estimated using Prism software (GraphPad). All transfection experiments were performed at least three times.

[2] = biological target: T2, human PPARγ (Homo sapiens, UniProt P37231); test: Gene reporter (transactivation) assay, Cos-7 cells transfected with pGal4-hPPARγ; type: cell-based; conditions: for EC50: GAL4 chimeric hPPARγ, read-out: hPPAR gene reporter γEC50; for Emax: COS-7, 24 h, read-out: hPPAR gene reporter γGal4 (%);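 as to all read-outs here: luciferase reporter (pG5-TK) activity normalised to cotransfected β-galactosidase, cells exposed to increasing compound concentrations in DMEM with 0.2% FCS, DMSO vehicle as control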
T2 construct: expressed in transfected cells; host or cells: Cos-7
T2 sequence (P37231 238-503 limits assumed): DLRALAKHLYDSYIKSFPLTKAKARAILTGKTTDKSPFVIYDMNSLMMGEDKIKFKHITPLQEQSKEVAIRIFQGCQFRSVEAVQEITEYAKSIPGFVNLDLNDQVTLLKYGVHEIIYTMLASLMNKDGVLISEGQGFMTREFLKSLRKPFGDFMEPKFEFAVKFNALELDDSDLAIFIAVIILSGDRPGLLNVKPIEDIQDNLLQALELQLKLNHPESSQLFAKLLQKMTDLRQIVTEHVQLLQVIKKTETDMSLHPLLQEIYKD
Procedure: as §1

[3] = biological target: T3, human PPARγ (Homo sapiens, UniProt P37231); test: Membrane-bound PPARγ binding assay ([3H]rosiglitazone competition, filtration); conditions: competition with [3H]rosiglitazone (4 nM), 180 min at 4 °C; read-out: Ki (nM), hPPARγ binding affinity
T3 sequence (P37231 235-505 limits assumed): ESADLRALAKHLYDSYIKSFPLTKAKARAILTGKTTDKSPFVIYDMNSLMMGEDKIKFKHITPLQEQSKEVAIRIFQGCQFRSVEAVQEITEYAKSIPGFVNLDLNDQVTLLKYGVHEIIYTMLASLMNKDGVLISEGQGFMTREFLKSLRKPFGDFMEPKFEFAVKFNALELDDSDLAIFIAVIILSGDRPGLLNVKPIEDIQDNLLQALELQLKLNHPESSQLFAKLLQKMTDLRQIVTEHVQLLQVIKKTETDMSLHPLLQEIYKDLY
Procedure: The membrane-associated PPARγ was used as the biological source as previously described. Binding buffer consisted of 10 mM Tris/HCl, pH 8.2, containing 50 mM KCl and 1 mM dithiothreitol. […] Radioactivity was measured in a TopCount apparatus (Packard).

[4] = test system: ob/ob mice; test: In vivo ob/ob mice: glycaemia, triglyceridemia, insulinemia, body weight; conditions: oral, 4 days, synthesised compounds 8.4 µMkg^−1, references 3 mgkg^−1; for ΔBW (body weight variation between day 0 and day 4): expressed in % of rosiglitazone in the same study (= 100%), ob/ob mice; for Change (%) Gly (glycemia) / Change (%) Ins (insulin) / Change (%) TG (triglycerides): percent change versus control, ob/ob mice at day 4;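 as to all read-outs here: male ob/ob mice aged 10–12 weeks, given the compound once daily by oral gavage as a 1% hydroxyethylcellulose suspension, 8–12 animals per group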
Procedure: The glucose- and triglyceride-lowering activities of the compounds prepared were then tested using 10–12-week-old male ob/ob mice. […] Mice had access to filtered (0.22 mm) tap water ad libitum and irradiated pelleted laboratory chow (transbreed, Special Diet Services, England) throughout the study. Compounds were prepared as a suspension in 1% hydroxyethylcellulose (HEC) for oral administration (10 mLkg^−1). The mice (n = 8–12 per group) were dosed by gavage daily between 15:00 and 17:00 for 4 days. Randomisation was performed based on glycaemia values. The body weight gain (DBW in grams) of the animals was determined by measuring the difference between body weight at the beginning and end of the study for each mouse. At day 5 between 9:00 and 11:00 the mice were weighed, and blood samples were collected into heparin-containing tubes by retro-orbital puncture (500 mL per mouse). […] Plasma samples were prepared by centrifugation (2000 g for 10 min), and stored at −20 °C. For triglycerides and insulin determination, the percent change in plasma level in the treated group was calculated relative to the mean plasma level in the vehicle-treated group. ANOVA, followed by Dunnett’s comparison test (one-tailed) was used to estimate significant differences between the plasma glycaemia, triglycerides, insulin, and DBW values between the control group and the individual compound-treated groups.
As a side effect index, body weight was also measured daily, and body weight variation was calculated as a percentage of the difference in body weight between days 4 and 0.

[5] = Emax relative to maximum activation with rosiglitazone (1 μM) = 100%, Cos-7 cells, 24 h

Compound | hPPAR gene reporter αGal4 (%) [1] | Emax [1] | EC50 [1] | EC50 ([2]; Cos-7 cells, 24 h) | melting point | Ki [3] | ΔBW (body weight variation between day 0 and day 4) [4] | Change (%) Gly (glycemia) [4] | Change (%) Ins (insulin) [4] | Change (%) TG (triglycerides) [4] | Emax [2, 5] | hPPAR gene reporter γGal4 (%) [2, 5] | Emax [2]
Cc1cccc(Nc2cc(Cl)nc(SCC(=O)O)n2)c1C [WY14643, reference compound] | 100% |  |  |  |  |  |  |  |  |  |  |  | 
CCOC(Cc1ccc(OCCn2c(=O)sc3ccc(C(=O)c4ccccc4)cc32)cc1)C(=O)O (stereo not drawn) [Compound 31, 3-{4-[2–(5-benzoyl-2-oxo-benzothiazol-3-yl)-ethoxy]-phenyl}-2-ethoxypropionic acid] |  | ≥ 80% | 256 nM | 61 nM | 49 to 51 °C | 8 nM |  |  |  |  |  |  | 
CCOC(Cc1ccc(OCCn2c(=O)sc3cc(/C(=N/O)c4ccccc4)ccc32)cc1)C(=O)O (stereo not drawn) [Compound 39a, 3-{4-[2–(6-[(E)-hydroxyimino-phenyl-methyl]-2-oxo-benzothiazol-3-yl)-ethoxy]-phenyl}-2-ethoxypropionic acid] |  | 129% |  | 24 nM | 84 to 85 °C | 2 nM | −10% | −49% | −34% | −69% | 91% |  | 
CCOC(Cc1ccc(OCCN2C(=O)C(F)(F)c3cc(C(=O)c4ccccc4)ccc32)cc1)C(=O)O (stereo not drawn) [Compound 38, 3-{4-[2–(5-benzoyl-3,3-difluoro-2-oxo-2,3-dihydroindol-1-yl)ethoxy]phenyl}-2-ethoxy-propionic acid] |  | 89% |  | 5 nM |  | 4 nM |  |  |  |  | ≤ 75% |  | 
CON=C(c1ccccc1)c1ccc2c(c1)sc(=O)n2CCOc1ccc(CC(OCC(F)(F)F)C(=O)O)cc1 (racemic) [Compound 40b, 3-{4-[2–(6-[(E)-methoxyimino-phenyl-methyl]-2-oxo-benzothiazol-3-yl)-ethoxy]-phenyl}-2–(2,2,2-trifluoro)ethoxypropionic acid] |  | 56% | 180 nM | 7 nM | 56 to 57 °C | 1.3 nM | −70% | −37% | −55% | −54% | 95% |  | 
CCO[C@@H](Cc1ccc(OCCn2c(=O)sc3cc(/C(=N/O)c4ccccc4)ccc32)cc1)C(=O)O [Compound 43a, (S)-3-{4-[2–(6-[(E)-hydroxyimino-phenyl-methyl]-2-oxo-benzothiazol-3-yl)-ethoxy]-phenyl}-2-ethoxypropionic acid] |  | 153% |  | 16 nM | 84 to 85 °C | 0.5 nM | 113% | −55% | −29% | −33% | 123% |  | 
CON=C(c1ccccc1)c1ccc2c(c1)sc(=O)n2CCOc1ccc(C[C@@H](OCC(F)(F)F)C(=O)O)cc1 [Compound 46b, (R)-3-{4-[2–(6-[(E)-methoxyimino-phenyl-methyl]-2-oxo-benzothiazol-3-yl)-ethoxy]-phenyl}-2–(2,2,2-trifluoro)ethoxypropionic acid] | 117% |  | 1660 nM | 9 nM |  | 33 nM |  |  |  |  |  | 116% | 
CCOC(Cc1ccc(OCCN2C(=O)CSc3ccc(C(=O)c4ccccc4)cc32)cc1)C(=O)O (stereo not drawn) [Compound 33, 3-{4-[2–(6-benzoyl-3-oxo-benzo[1, 4]thiazin-4-yl)-ethoxy]-phenyl}-2-ethoxypropionic acid] |  | ≤ 20% | 10000 nM | 219 nM | 52 to 54 °C | 220 nM |  |  |  |  | ≤ 70% |  | 
CCO[C@H](Cc1ccc(OCCn2c(=O)sc3cc(/C(=N/OC)c4ccccc4)ccc32)cc1)C(=O)O [Compound 46a, (R)-3-{4-[2–(6-[(E)-methoxyimino-phenyl-methyl]-2-oxo-benzothiazol-3-yl)-ethoxy]-phenyl}-2-ethoxypropionic acid] |  | 124% | 1480 nM | 558 nM | 151 to 152 °C | 86 nM |  |  |  |  | 87% |  | 
CCOC(Cc1ccc(OCCN2C(=O)COc3cc(C(=O)c4ccccc4)ccc32)cc1)C(=O)O (stereo not drawn) [Compound 36, 3-{4-[2–(7-benzoyl-3-oxo-benzo[1, 4]oxazin-4-yl)-ethoxy]-phenyl}-2-ethoxypropionic acid] |  | 80% |  | 80 nM | 36 to 38 °C | 1 nM |  |  |  |  | > 100% |  | 
CON=C(c1ccccc1)c1ccc2c(c1)sc(=O)n2CCOc1ccc(C[C@H](OCC(F)(F)F)C(=O)O)cc1 [Compound 44b, (S)-3-{4-[2–(6-[(E)-methoxyimino-phenyl-methyl]-2-oxo-benzothiazol-3-yl)-ethoxy]-phenyl}-2–(2,2,2-trifluoro)ethoxypropionic acid] | 59% |  | 525 nM | 0.9 nM |  | 3 nM | −17% | −36% | −89% | −69% |  | 150% | 
COc1ccc(OC(=O)N(CC(=O)O)Cc2ccc(OCCc3nc(-c4ccccc4)oc3C)cc2)cc1 [mura, Muraglitazar, reference compound] |  | 84% | 595 nM |  |  |  | 206% | −46% | −46% | −34% |  |  | 128%
CCOC(Cc1ccc(OCCN2C(=O)COc3ccc(C(=O)c4ccccc4)cc32)cc1)C(=O)O (stereo not drawn) [Compound 35, 3-{4-[2–(6-benzoyl-3-oxo-benzo[1, 4]oxazin-4-yl)-ethoxy]-phenyl}-2-ethoxypropionic acid] |  | 97% |  | 2 nM | 47 to 49 °C | 3 nM |  |  |  |  | > 100% |  | 
CCOC(Cc1ccc(OCCN2C(=O)CSc3cc(C(=O)c4ccccc4)ccc32)cc1)C(=O)O (stereo not drawn) [Compound 34, 3-{4-[2–(7-benzoyl-3-oxo-benzo[1, 4]thiazin-4-yl)-ethoxy]-phenyl}-2-ethoxypropionic acid] |  | 116% | 2050 nM | 37 nM | 58 to 60 °C | 4 nM |  |  |  |  | 97% |  | 
CN(CCOc1ccc(CC2SC(=O)NC2=O)cc1)c1ccccn1 (stereo not drawn) [rosi, Rosiglitazone, reference compound] |  |  |  |  |  |  | 100% | −57% | −73% | −46% |  |  | 
CCOC(Cc1ccc(OCCN2C(=O)Cc3cc(C(=O)c4ccccc4)ccc32)cc1)C(=O)O (stereo not drawn) [Compound 37, 3-{4-[2–(5-benzoyl-2-oxo-2,3-dihydroindol-1-yl)ethoxy]phenyl}-2-ethoxypropionic acid] |  | 100% |  | 40 nM | 68 to 70 °C | 6.5 nM |  |  |  |  | ≤ 75% |  | 
